# Experiments:
# [1] = test system: BC-3; test: cells; type: functional, cell-based; settings: Homo sapiens;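 further: cell viability assay measuring growth inhibition of human BC-3 cells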
# Description: SANGER: Inhibition of human BC-3 cell growth in a cell viability assay.
# [2] = test system: EVSA-T; test: cells; type: functional, cell-based, Homo sapiens; settings: Homo sapiens, EVSA-T;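 further: growth inhibition of EVSA-T cells, read out with a cell viability assay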
# Description: SANGER: Inhibition of human EVSA-T cell growth in a cell viability assay.
# [3] = test system: NCI-H1882; test: cells; type: functional, cell-based; settings: Homo sapiens;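 further: growth inhibition of the cell line, determined with a viability assay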
# Description: SANGER: Inhibition of human NCI-H1882 cell growth in a cell viability assay.
# [4] = test system: NCI-H64; test: cells; type: functional, cell-based; settings: Homo sapiens;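 further: growth inhibition of NCI-H64 cells, read out with a cell viability assay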
# Description: SANGER: Inhibition of human NCI-H64 cell growth in a cell viability assay.
# [5] = test system: IST-SL2; test: cells; type: functional, cell-based; settings: Homo sapiens;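 further: growth inhibition of human IST-SL2 cells, read out by a cell viability assay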
# Description: SANGER: Inhibition of human IST-SL2 cell growth in a cell viability assay.
# [6] = test system: NCI-H1694; test: cells; type: functional, cell-based; settings: Homo sapiens;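 further: cell viability assay measuring inhibition of growth in human NCI-H1694 cells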
# Description: SANGER: Inhibition of human NCI-H1694 cell growth in a cell viability assay.
# [7] = test system: MRK-nu-1; test: cells; type: functional, cell-based; settings: Homo sapiens;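 further: cell viability assay measuring growth suppression of human MRK-nu-1 cells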
# Description: SANGER: Inhibition of human MRK-nu-1 cell growth in a cell viability assay.
# [8] = test system: CA46; test: cells; type: functional, cell-based; settings: Homo sapiens;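 further: growth inhibition of human CA46 cells, read out by a cell viability assay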
# Description: SANGER: Inhibition of human CA46 cell growth in a cell viability assay.
# [9] = test system: SU-DHL-1; test: SANGER: Inhibition of human SU-DHL-1 cell growth in a cell viability assay.; type: functional, cell-based
# [10] = test system: MDA-MB-134-VI; test: cells; type: functional, cell-based; settings: Homo sapiens
# Description: SANGER: Inhibition of human MDA-MB-134-VI cell growth in a cell viability assay.
# [11] = test system: SCLC-21H; test: cells; type: functional, cell-based; settings: Homo sapiens;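 further: growth inhibition of cultured human SCLC-21H cells, read out with a cell viability assay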
# Description: SANGER: Inhibition of human SCLC-21H cell growth in a cell viability assay.
# [12] = test system: UACC-812; test: cells; type: functional, cell-based; settings: Homo sapiens
# Description: SANGER: Inhibition of human UACC-812 cell growth in a cell viability assay.
# [13] = test system: MEL-JUSO; test: cells; type: functional, cell-based, Homo sapiens; settings: Homo sapiens, MEL-JUSO;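 further: growth inhibition of human MEL-JUSO cells, read out with a cell viability assay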
# Description: SANGER: Inhibition of human MEL-JUSO cell growth in a cell viability assay.
# [14] = test system: KARPAS-422; test: cells; type: functional, cell-based; settings: Homo sapiens
# Description: SANGER: Inhibition of human KARPAS-422 cell growth in a cell viability assay.
# [15] = test system: BL-70; test: SANGER: Inhibition of human BL-70 cell growth in a cell viability assay.; type: functional, cell-based
# [16] = test system: Kasumi 1; test: cells; type: functional, cell-based; settings: Homo sapiens;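 further: growth inhibition of human Kasumi-1 cells, read out by a cell viability assay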
# Description: SANGER: Inhibition of human KASUMI-1 cell growth in a cell viability assay.
# [17] = test system: SNU-C1; test: cells; type: functional, cell-based; settings: Homo sapiens;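 further: growth inhibition of SNU-C1 human cells, read out by a cell viability assay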
# Description: SANGER: Inhibition of human SNU-C1 cell growth in a cell viability assay.
# [18] = test system: 23132-87; test: cells; type: functional, cell-based, Homo sapiens; settings: Homo sapiens
# Description: SANGER: Inhibition of human 23132-87 cell growth in a cell viability assay.
# [19] = test system: GDM-1; test: cells; type: functional, cell-based; settings: Homo sapiens;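 further: cell viability readout used to measure growth inhibition of human GDM-1 cells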
# Description: SANGER: Inhibition of human GDM-1 cell growth in a cell viability assay.
# [20] = test system: SK-MM-2; test: cells; type: functional, cell-based; settings: Homo sapiens;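 further: growth inhibition of human SK-MM-2 cells, read out with a cell viability assay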
# Description: SANGER: Inhibition of human SK-MM-2 cell growth in a cell viability assay.
# [21] = test system: CESS; test: SANGER: Inhibition of human CESS cell growth in a cell viability assay.; type: functional, cell-based
# [22] = test system: NCI-H524; test: cells; type: functional, cell-based; settings: Homo sapiens;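 further: growth inhibition of human NCI-H524 cells, read out through a cell viability assay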
# Description: SANGER: Inhibition of human NCI-H524 cell growth in a cell viability assay.
# [23] = test system: WSU-NHL; test: cells; type: functional, cell-based; settings: Homo sapiens;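 further: growth inhibition of human WSU-NHL cells, read out with a cell viability assay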
# Description: SANGER: Inhibition of human WSU-NHL cell growth in a cell viability assay.
# [24] = test system: NCI-H2141; test: cells; type: functional, cell-based; settings: Homo sapiens;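 further: growth inhibition of human NCI-H2141 cells, read out with a cell viability assay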
# Description: SANGER: Inhibition of human NCI-H2141 cell growth in a cell viability assay.
# [25] = test system: MC-CAR; test: cells; type: functional, cell-based; settings: Homo sapiens;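 further: growth inhibition of the human MC-CAR cell line, read out by a cell viability assay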
# Description: SANGER: Inhibition of human MC-CAR cell growth in a cell viability assay.
# [26] = test system: BL-41; test: cells; type: functional, cell-based; settings: Homo sapiens;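 further: growth inhibition of human BL-41 cells, read out with a cell viability assay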
# Description: SANGER: Inhibition of human BL-41 cell growth in a cell viability assay.
# [27] = test system: NCI-H1703; test: cells; type: functional, cell-based, Homo sapiens; settings: Homo sapiens, NCI-H1703;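 further: growth inhibition of NCI-H1703 cells, read out via a cell viability assay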
# Description: SANGER: Inhibition of human NCI-H1703 cell growth in a cell viability assay.
# [28] = test system: EB-3; test: cells; type: functional, cell-based; settings: Homo sapiens;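 further: human EB-3 cells, growth inhibition read out via a cell viability assay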
# Description: SANGER: Inhibition of human EB-3 cell growth in a cell viability assay.
# [29] = test system: LU-165; test: cells; type: functional, cell-based; settings: Homo sapiens
# Description: SANGER: Inhibition of human LU-165 cell growth in a cell viability assay.
# [30] = test system: HuO9; test: cells; type: functional, cell-based, Homo sapiens; settings: Homo sapiens, HuO9;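 further: growth inhibition of HuO9 cells, read out with a cell viability assay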
# Description: SANGER: Inhibition of human HuO9 cell growth in a cell viability assay.
# [31] = test system: SUP-T1; test: cells; type: functional, cell-based; settings: Homo sapiens;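 further: growth inhibition of human SUP-T1 cells, read out as cell viability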
# Description: SANGER: Inhibition of human SUP-T1 cell growth in a cell viability assay.
# [32] = test system: CAL-148; test: cells; type: functional, cell-based; settings: Homo sapiens
# Description: SANGER: Inhibition of human CAL-148 cell growth in a cell viability assay.
# [33] = test system: KMS-12-PE; test: cells; type: functional, cell-based; settings: Homo sapiens;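 further: growth inhibition of human KMS-12-PE cells, measured with a cell viability assay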
# Description: SANGER: Inhibition of human KMS-12-PE cell growth in a cell viability assay.
# [34] = test system: L-540; test: cells; type: functional, cell-based; settings: Homo sapiens;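 further: growth inhibition of the human L-540 cell line, read out with a viability assay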
# Description: SANGER: Inhibition of human L-540 cell growth in a cell viability assay.
# [35] = test system: HT55; test: cells; type: functional, cell-based, Homo sapiens; settings: Homo sapiens, HT55;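 further: cell viability readout measuring growth inhibition of human HT55 cells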
# Description: SANGER: Inhibition of human HT55 cell growth in a cell viability assay.
# [36] = test system: COR-L279; test: SANGER: Inhibition of human COR-L279 cell growth in a cell viability assay.; type: functional, cell-based
# [37] = test system: SNU-16; test: cells; type: functional, cell-based; settings: Homo sapiens;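 further: growth inhibition of human SNU-16 cells, determined with a cell viability readout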
# Description: SANGER: Inhibition of human NCI-SNU-16 cell growth in a cell viability assay.
# [38] = test system: ST486; test: SANGER: Inhibition of human ST486 cell growth in a cell viability assay.; type: functional, cell-based
# [39] = test system: IM-9; test: SANGER: Inhibition of human IM-9 cell growth in a cell viability assay.; type: functional, cell-based
# [40] = test system: LOUCY; test: cells; type: functional, cell-based; settings: Homo sapiens;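 further: growth inhibition of human LOUCY cells, read out with a cell viability assay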
# Description: SANGER: Inhibition of human LOUCY cell growth in a cell viability assay.
# [41] = test system: G-361; test: cells; type: functional, cell-based, Homo sapiens; settings: Homo sapiens, G-361
# [42] = test system: CMK; test: cells; type: functional, cell-based; settings: Homo sapiens;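 further: growth inhibition of CMK cells, read out as cell viability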
# Description: SANGER: Inhibition of human CMK cell growth in a cell viability assay.
# [43] = test system: HCC1599; test: cells; type: functional, cell-based; settings: Homo sapiens;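 further: growth inhibition of HCC1599 cells, read out in a cell viability assay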
# Description: SANGER: Inhibition of human HCC1599 cell growth in a cell viability assay.
# [44] = test system: YT; test: cells; type: functional, cell-based; settings: Homo sapiens
# Description: SANGER: Inhibition of human YT cell growth in a cell viability assay.
# [45] = test system: K052; test: cells; type: functional, cell-based; settings: Homo sapiens;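 further: Read-out from a cell viability assay, IC50 reflecting suppression of K052 cell growth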
# Description: SANGER: Inhibition of human K052 cell growth in a cell viability assay.
# [46] = test system: Raji; test: cells; type: functional, cell-based; settings: Homo sapiens;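 further: cell viability assay measuring inhibition of Raji cell growth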
# Description: SANGER: Inhibition of human Raji cell growth in a cell viability assay.
# [47] = test system: NCI-H630; test: cells; type: functional, cell-based, Homo sapiens; settings: Homo sapiens, NCI-H630;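 further: growth inhibition of NCI-H630 cells, read out with a cell viability assay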
# Description: SANGER: Inhibition of human NCI-H630 cell growth in a cell viability assay.
# [48] = test system: NCI-H889; test: cells; type: functional, cell-based; settings: Homo sapiens;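 further: cell growth inhibition of the cell line, read out with a viability assay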
# Description: SANGER: Inhibition of human NCI-H889 cell growth in a cell viability assay.
# [49] = test system: NCI-H1522; test: cells; type: functional, cell-based; settings: Homo sapiens;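 further: growth inhibition of NCI-H1522 cells, read out with a cell viability assay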
# Description: SANGER: Inhibition of human NCI-H1522 cell growth in a cell viability assay.
# [50] = test system: TE-15; test: cells; type: functional, cell-based; settings: Homo sapiens;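 further: cell viability readout of growth inhibition in TE-15 cells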
# Description: SANGER: Inhibition of human TE-15 cell growth in a cell viability assay.
# [51] = test system: NCI-H1436; test: cells; type: functional, cell-based; settings: Homo sapiens;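 further: growth suppression of human NCI-H1436 cells, determined with a cell viability readout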
# Description: SANGER: Inhibition of human NCI-H1436 cell growth in a cell viability assay.
# [52] = test system: NCI-H460; test: cells; type: functional, cell-based, Homo sapiens; settings: Homo sapiens, NCI-H460;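 further: cell viability assay scoring growth inhibition of human NCI-H460 cells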
# Description: SANGER: Inhibition of human NCI-H460 cell growth in a cell viability assay.
# [53] = test system: JIYOYE; test: cells; type: functional, cell-based; settings: Homo sapiens
# Description: SANGER: Inhibition of human JiyoyeP-2003 cell growth in a cell viability assay.
smiles,measurement,setting,value
CN(c1ncccc1CNc1nc(Nc2ccc3c(c2)CC(=O)N3)ncc1C(F)(F)F)S(C)(=O)=O [PF-00562271],IC50,[1],> 2560 nM
same,IC50,[2],> 2560 nM
same,IC50,[3],> 2560 nM
same,IC50,[4],> 2560 nM
same,IC50,[5],> 2560 nM
same,IC50,[6],> 2560 nM
same,IC50,[7],> 2560 nM
same,IC50,[8],> 2560 nM
same,IC50,[9],> 2560 nM
same,IC50,[10],> 2560 nM
same,IC50,[11],> 2560 nM
same,IC50,[12],> 2560 nM
same,IC50,[13],1730 nM
same,IC50,[14],> 2560 nM
same,IC50,[15],> 2560 nM
same,IC50,[16],2330 nM
same,IC50,[17],> 2560 nM
same,IC50,[18],> 2560 nM
same,IC50,[19],> 2560 nM
same,IC50,[20],> 2560 nM
same,IC50,[21],> 2560 nM
same,IC50,[22],> 2560 nM
same,IC50,[23],> 2560 nM
same,IC50,[24],> 2560 nM
same,IC50,[25],> 2560 nM
same,IC50,[26],> 2560 nM
same,IC50,[27],> 2560 nM
same,IC50,[28],> 2560 nM
same,IC50,[29],> 2560 nM
same,IC50,[30],> 2560 nM
same,IC50,[31],> 2560 nM
same,IC50,[32],> 2560 nM
same,IC50,[33],> 2560 nM
same,IC50,[34],> 2560 nM
same,IC50,[35],> 2560 nM
same,IC50,[36],> 2560 nM
same,IC50,[37],> 2560 nM
same,IC50,[38],1530 nM
same,IC50,[39],> 2560 nM
same,IC50,[40],2260 nM
same,IC50,[41],> 2560 nM
same,IC50,[42],2420 nM
same,IC50,[43],> 2560 nM
same,IC50,[44],> 2560 nM
same,IC50,[45],> 2560 nM
same,IC50,[46],> 2560 nM
same,IC50,[47],> 2560 nM
same,IC50,[48],> 2560 nM
same,IC50,[49],> 2560 nM
same,IC50,[50],> 2560 nM
same,IC50,[51],> 2560 nM
same,IC50,[52],2050 nM
same,IC50,[53],> 2560 nM
COc1cc([C@@H]2c3cc4c(cc3[C@@H](O[C@@H]3O[C@@H]5CO[C@@H](C)O[C@H]5[C@H](O)[C@H]3O)[C@H]3COC(=O)[C@H]23)OCO4)cc(OC)c1O [ETOPOSIDE],IC50,[1],2480 nM
same,IC50,[2],> 16000 nM
same,IC50,[3],2680 nM
same,IC50,[4],4000 nM
same,IC50,[5],850 nM
same,IC50,[6],1370 nM
same,IC50,[7],116 nM
same,IC50,[8],> 16000 nM
same,IC50,[9],959 nM
same,IC50,[10],> 16000 nM
same,IC50,[11],> 16000 nM
same,IC50,[12],> 16000 nM
same,IC50,[13],657 nM
same,IC50,[14],4330 nM
same,IC50,[15],7070 nM
same,IC50,[16],1320 nM
same,IC50,[17],> 16000 nM
same,IC50,[18],501 nM
same,IC50,[19],3400 nM
same,IC50,[20],9680 nM
same,IC50,[21],384 nM
same,IC50,[22],> 16000 nM
same,IC50,[23],4360 nM
same,IC50,[24],8520 nM
same,IC50,[25],580 nM
same,IC50,[26],2080 nM
same,IC50,[27],1300 nM
same,IC50,[28],> 16000 nM
same,IC50,[29],> 16000 nM
same,IC50,[30],926 nM
same,IC50,[31],706 nM
same,IC50,[32],625 nM
same,IC50,[33],9910 nM
same,IC50,[34],1060 nM
same,IC50,[35],> 16000 nM
same,IC50,[36],1270 nM
same,IC50,[37],> 16000 nM
same,IC50,[38],2250 nM
same,IC50,[39],> 16000 nM
same,IC50,[40],177 nM
same,IC50,[41],834 nM
same,IC50,[42],2680 nM
same,IC50,[43],616 nM
same,IC50,[44],> 16000 nM
same,IC50,[45],> 16000 nM
same,IC50,[46],8320 nM
same,IC50,[47],9120 nM
same,IC50,[48],> 16000 nM
same,IC50,[49],> 16000 nM
same,IC50,[50],960 nM
same,IC50,[51],> 16000 nM
same,IC50,[52],236 nM
same,IC50,[53],2540 nM
CCC1=C[C@@H]2CN(C1)Cc1c([nH]c3ccccc13)[C@@](C(=O)OC)(c1cc3c(cc1OC)N(C)[C@H]1[C@@](O)(C(=O)OC)[C@H](OC(C)=O)[C@]4(CC)C=CCN5CC[C@]31[C@@H]54)C2 [VINORELBINE],IC50,[1],31.1 nM
same,IC50,[2],> 64 nM
same,IC50,[3],36.5 nM
same,IC50,[4],7.27 nM
same,IC50,[5],17.1 nM
same,IC50,[6],44.4 nM
same,IC50,[7],4.47 nM
same,IC50,[8],22.2 nM
same,IC50,[9],9.45 nM
same,IC50,[10],> 64 nM
same,IC50,[11],> 64 nM
same,IC50,[12],> 64 nM
same,IC50,[13],4.26 nM
same,IC50,[14],23.3 nM
same,IC50,[15],3.16 nM
same,IC50,[16],17.7 nM
same,IC50,[17],> 64 nM
same,IC50,[18],6.95 nM
same,IC50,[19],24.6 nM
same,IC50,[20],> 64 nM
same,IC50,[21],5.04 nM
same,IC50,[22],> 64 nM
same,IC50,[23],33.7 nM
same,IC50,[24],39 nM
same,IC50,[25],9.27 nM
same,IC50,[26],5.28 nM
same,IC50,[27],2.83 nM
same,IC50,[28],> 64 nM
same,IC50,[29],> 64 nM
same,IC50,[30],7.09 nM
same,IC50,[31],4.72 nM
same,IC50,[32],15.4 nM
same,IC50,[33],60.1 nM
same,IC50,[34],30 nM
same,IC50,[35],> 64 nM
same,IC50,[36],> 64 nM
same,IC50,[37],38.6 nM
same,IC50,[38],2.96 nM
same,IC50,[39],> 64 nM
same,IC50,[40],9.69 nM
same,IC50,[41],3.53 nM
same,IC50,[42],13.7 nM
same,IC50,[43],10.6 nM
same,IC50,[44],> 64 nM
same,IC50,[45],21.2 nM
same,IC50,[46],> 64 nM
same,IC50,[47],45.5 nM
same,IC50,[48],40.3 nM
same,IC50,[49],> 64 nM
same,IC50,[50],3.1 nM
same,IC50,[51],13.6 nM
same,IC50,[52],6.98 nM
same,IC50,[53],10.7 nM
